Measured values taken from patent US20170369444A1, “INHIBITORS OF HISTONE DEMETHYLASES” (Gilead Sciences, Inc., priority 2014, published 2017).

Columns and labels:
Type in all cases: biochemical
[1] = target: T1, KDM4C (JMJD2C) (Homo sapiens, UniProt Q9H3R0); assay: Histone lysine demethylase AlphaLISA assay, KDM4C; settings: in vitro enzyme, read-out: KDM4C IC50 (HDME Inhibition)
T1 construct: 1-349; host or cells: E. coli
T1 sequence (Q9H3R0 1-349): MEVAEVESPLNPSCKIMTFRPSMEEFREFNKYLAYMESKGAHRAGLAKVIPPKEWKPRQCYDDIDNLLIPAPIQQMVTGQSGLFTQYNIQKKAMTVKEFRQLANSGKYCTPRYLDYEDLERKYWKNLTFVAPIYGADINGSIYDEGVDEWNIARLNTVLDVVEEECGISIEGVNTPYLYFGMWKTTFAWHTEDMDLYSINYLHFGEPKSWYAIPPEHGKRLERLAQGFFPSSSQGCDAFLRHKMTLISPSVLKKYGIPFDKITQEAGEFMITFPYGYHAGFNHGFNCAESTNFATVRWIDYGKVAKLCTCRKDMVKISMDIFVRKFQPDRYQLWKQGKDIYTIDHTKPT
Procedure: Histone lysine demethylase AlphaLISA assays are performed to determine IC50 values. […] Assays are performed analogously to the protocol described by PerkinElmer (Roy et al. PerkinElmer Technical Note: AlphaLISA #12, April 2011).
Assays are performed analogously to the protocol described by PerkinElmer (Roy et al. PerkinElmer Technical Note: AlphaLISA #12, April 2011).
Enzymes (final assay concentration 0.1-2.5 nM) are dissolved in enzyme buffer and incubated for 10 min before 5 μL is added to 5 μL 3% DMSO solutions of compounds in enzyme buffer, incubated for another 10 minutes, before 5 μL substrate solution is added and the reaction mixture is incubated at room temperature. 10 μL acceptor beads, suspended Epigenetic Buffer (Perkin Elmer AL008) from stock, are added and the suspension is incubated in the dark at room temperature, before 10 μL suspension of streptavidin donor beads (Perkin Elmer 6760002) in Epigenetic Buffer is added. After incubation at room temperature in the dark the plates are read.
Substrate solution: Substrate (final assay concentration 50-200 nM), 50 mM Hepes (pH 7.4-8.0), 0.003% Tween-20, 0.1% BS, 25 μM L-Asc, 10 μM α-KG. Enzyme Buffer: 50 mM Hepes (pH 7.4-8.0), 0.003% Tween-20, 0.1% BSA; 5 μM (NH4)2Fe(SO4)2

[2] = target: T2, KDM6A (UTX) (Homo sapiens, UniProt O15550); assay: Histone lysine demethylase AlphaLISA assay, KDM6A; settings: in vitro enzyme, read-out: KDM6A IC50 (HDME Inhibition)
T2 construct: 919-1401; host or cells: E. coli
T2 sequence (O15550 919-1401): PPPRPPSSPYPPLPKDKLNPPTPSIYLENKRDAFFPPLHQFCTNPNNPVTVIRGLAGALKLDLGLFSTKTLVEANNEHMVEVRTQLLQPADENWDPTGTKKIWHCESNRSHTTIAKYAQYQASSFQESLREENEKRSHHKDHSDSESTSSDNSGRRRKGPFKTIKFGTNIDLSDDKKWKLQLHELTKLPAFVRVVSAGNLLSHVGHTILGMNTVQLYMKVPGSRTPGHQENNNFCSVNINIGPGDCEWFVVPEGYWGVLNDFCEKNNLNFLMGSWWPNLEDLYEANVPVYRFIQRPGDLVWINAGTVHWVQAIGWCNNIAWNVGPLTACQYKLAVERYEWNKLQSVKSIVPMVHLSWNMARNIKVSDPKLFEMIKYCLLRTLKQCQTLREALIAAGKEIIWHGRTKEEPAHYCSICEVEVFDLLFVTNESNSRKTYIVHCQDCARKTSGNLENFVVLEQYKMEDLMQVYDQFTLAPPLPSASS

[3] = target: T3, KDM5B (PLU-1) (Homo sapiens, UniProt Q9UGL1); assay: Histone lysine demethylase AlphaLISA assay, KDM5B; settings: in vitro enzyme, read-out: KDM5B IC50 (HDME Inhibition)
T3 construct: 1-809; host or cells: E. coli
T3 sequence (Q9UGL1 1-809): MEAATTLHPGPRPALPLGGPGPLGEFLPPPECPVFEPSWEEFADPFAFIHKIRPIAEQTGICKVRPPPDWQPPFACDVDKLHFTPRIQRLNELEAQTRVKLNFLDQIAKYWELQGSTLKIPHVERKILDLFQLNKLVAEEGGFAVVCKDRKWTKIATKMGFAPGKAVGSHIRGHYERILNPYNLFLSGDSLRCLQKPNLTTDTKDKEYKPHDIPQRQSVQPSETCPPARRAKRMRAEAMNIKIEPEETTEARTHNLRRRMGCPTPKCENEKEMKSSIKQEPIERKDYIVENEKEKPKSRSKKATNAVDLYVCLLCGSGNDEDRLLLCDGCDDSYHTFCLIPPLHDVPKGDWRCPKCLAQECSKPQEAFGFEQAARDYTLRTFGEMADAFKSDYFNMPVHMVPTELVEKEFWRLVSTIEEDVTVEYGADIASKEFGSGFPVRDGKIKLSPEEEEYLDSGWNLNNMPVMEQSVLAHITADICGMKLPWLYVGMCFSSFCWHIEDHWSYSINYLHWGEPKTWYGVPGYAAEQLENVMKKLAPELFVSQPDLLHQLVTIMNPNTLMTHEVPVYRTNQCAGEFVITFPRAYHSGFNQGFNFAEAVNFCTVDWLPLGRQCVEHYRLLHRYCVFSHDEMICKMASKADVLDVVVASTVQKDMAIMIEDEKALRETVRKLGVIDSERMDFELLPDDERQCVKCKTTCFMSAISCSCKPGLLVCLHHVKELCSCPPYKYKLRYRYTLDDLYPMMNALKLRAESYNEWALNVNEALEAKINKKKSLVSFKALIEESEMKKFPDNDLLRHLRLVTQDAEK

[4] = target: PHF8 (KDM7) (Homo sapiens, UniProt Q9UPP1); assay: Histone lysine demethylase AlphaLISA assay, PHF8; settings: in vitro enzyme, read-out: PHF8 IC50 (HDME Inhibition)
PHF8 (KDM7), sequence (Q9UPP1 whole entry): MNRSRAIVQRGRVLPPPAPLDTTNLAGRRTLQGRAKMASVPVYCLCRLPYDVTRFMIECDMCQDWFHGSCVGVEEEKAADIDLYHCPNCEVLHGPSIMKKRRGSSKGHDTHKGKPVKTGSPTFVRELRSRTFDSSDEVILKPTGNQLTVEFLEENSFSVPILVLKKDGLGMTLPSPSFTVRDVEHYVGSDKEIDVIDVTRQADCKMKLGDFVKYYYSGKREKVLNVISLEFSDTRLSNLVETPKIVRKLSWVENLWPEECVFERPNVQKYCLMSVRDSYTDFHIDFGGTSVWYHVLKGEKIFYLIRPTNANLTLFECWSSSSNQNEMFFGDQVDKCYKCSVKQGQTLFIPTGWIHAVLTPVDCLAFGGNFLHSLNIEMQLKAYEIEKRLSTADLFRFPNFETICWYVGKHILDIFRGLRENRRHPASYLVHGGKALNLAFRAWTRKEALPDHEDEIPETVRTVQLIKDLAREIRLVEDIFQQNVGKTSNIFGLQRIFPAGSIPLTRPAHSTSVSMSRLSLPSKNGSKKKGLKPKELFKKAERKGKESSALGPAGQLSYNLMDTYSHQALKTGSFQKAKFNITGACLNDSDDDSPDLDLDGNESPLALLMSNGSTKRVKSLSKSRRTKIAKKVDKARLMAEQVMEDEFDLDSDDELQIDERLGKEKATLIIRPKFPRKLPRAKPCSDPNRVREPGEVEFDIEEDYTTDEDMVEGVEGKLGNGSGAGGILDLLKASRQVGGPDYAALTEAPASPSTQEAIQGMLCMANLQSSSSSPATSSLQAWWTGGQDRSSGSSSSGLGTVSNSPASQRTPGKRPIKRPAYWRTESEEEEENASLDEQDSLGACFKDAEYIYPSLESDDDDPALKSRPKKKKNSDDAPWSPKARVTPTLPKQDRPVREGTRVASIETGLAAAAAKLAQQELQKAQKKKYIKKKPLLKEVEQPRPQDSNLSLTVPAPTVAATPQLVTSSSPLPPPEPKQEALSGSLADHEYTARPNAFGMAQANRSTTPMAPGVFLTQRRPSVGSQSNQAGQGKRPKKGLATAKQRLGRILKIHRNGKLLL

## C=CCN(CC=C)C(=O)[C@H](CCCCN(C)C(C)=O)NCc1cc(C(=O)O)ccn1 [Compound 21, 2-({[(1S)-1-[bis(prop-2-en-1-yl)carbamoyl]-5-(N-methylacetamido)pentyl]amino}methyl)pyri-dine-4-carboxylic acid]
[1]
  IC50: > 2.5 µM
[2]
  IC50: > 2.5 µM
[3]
  IC50: 0.25 to 2.5 µM

## O=C(O)c1cnnc(CNCC(=O)N2CCCCC2)c1 [Compound 26, 6-({[2-oxo-2-(piperidin-1-yl)ethyl]amino}methyl) pyridazine-4-carboxylic acid]
[1]
  IC50: < 0.25 µM
[2]
  IC50: > 2.5 µM
[3]
  IC50: < 0.25 µM

## CC(C)C[C@H](CO)NC(C)c1cc(C(=O)O)ccn1 (stereo partly drawn) [Compound 33, 2-(1-{[(2R)-1-hydroxy-4-methylpentan-2-yl]amino}ethyl)pyridine-4-carboxylic acid]
[1]
  IC50: > 2.5 µM
[2]
  IC50: > 2.5 µM
[3]
  IC50: 0.25 to 2.5 µM

## CSCC(NCC(=O)N1CCCCC1)c1cc(C(=O)O)ccn1 (stereo not shown) [Compound 42, 2-[2-(methylsulfanyl)-1-{[2-oxo-2-(piperidin-1-yl)ethyl]amino}ethyl] pyridine-4-carboxylic acid]
[1]
  IC50: > 2.5 µM
[2]
  IC50: > 2.5 µM
[3]
  IC50: > 2.5 µM

## O=C(O)c1ccnc(CN2CCCCn3ccnc3C2)c1 [Compound 51, 2-{5H,6H,7H,8H,9H,10H-imidazo[1,2-a][1,4]diazocin-9-ylmethyl}pyridine-4-carboxylic acid]
[1]
  IC50: < 0.25 µM
[2]
  IC50: > 2.5 µM
[4]
  IC50: 0.25 to 2.5 µM

## O=C(O)c1ccnc(CN2CCCn3ccnc3C2)c1 [Compound 53, 2-{5H,6H,7H,8H,9H-imidazo[1,2-a][1,4]diazepin-8-ylmethyl}pyridine-4-carboxylic acid]
[1]
  IC50: 0.25 to 2.5 µM
[2]
  IC50: > 2.5 µM
[4]
  IC50: > 2.5 µM

## Cc1cn2c(n1)CCN(Cc1cc(C(=O)O)ccn1)CCC2 [Compound 67, 2-({2-methyl-5H,6H,7H,8H,9H,10H-imidazo[1,2-a][1,5]diazocin-8-yl}methyl)pyridine-4-carboxylic acid]
[1]
  IC50: > 2.5 µM
[2]
  IC50: > 2.5 µM
[3]
  IC50: > 2.5 µM

## CCNC(=O)C[C@@H]1CCCCN1Cc1cc(C(=O)O)ccn1 [Compound 71, 2-{[(2S)-2-[(ethylcarbamoyl)methyl]piperidin-1-yl]methyl}pyridine-4-carboxylic acid]
[1]
  IC50: > 2.5 µM
[2]
  IC50: > 2.5 µM
[3]
  IC50: > 2.5 µM

## O=C(O)c1ccnc(CN2CCCC[C@@H]2CC(=O)N2CCCCC2)c1 [Compound 72, 2-{[(2R)-2-[2-oxo-2-(piperidin-1-yl)ethyl]piperidin-1-yl]methyl}pyridine-4-carboxylic acid]
[1]
  IC50: > 2.5 µM
[2]
  IC50: > 2.5 µM
[3]
  IC50: > 2.5 µM

## COc1ccc([C@@H](C)N2CC[C@H](CNCc3cc(C(=O)O)ccn3)C2=O)cc1 [Compound 79, 2-[({[(3R)-1-[(1R)-1-(4-methoxyphenyl)ethyl]-2-oxopyrrolidin-3-yl]methyl}amino)methyl]pyridine-4-carboxylic acid]
[1]
  IC50: < 0.25 µM
[2]
  IC50: 0.25 to 2.5 µM
[3]
  IC50: < 0.25 µM

## C[C@H](c1ccccc1)N1CC[C@H](CNCc2cc(C(=O)O)ccn2)C1=O [Compound 82, 2-[({[(3R)-2-oxo-1-[(1R)-1-phenylethyl]pyrrolidin-3-yl]methyl}amino)methyl]pyridine-4-carboxylic acid]
[1]
  IC50: < 0.25 µM
[2]
  IC50: 0.25 to 2.5 µM
[3]
  IC50: < 0.25 µM

## O=C(O)c1ccnc(CNC2CCn3ccnc32)c1 (stereo not shown) [Compound 93, 2-[({5H,6H,7H-pyrrolo[1,2-a]imidazol-7-yl}amino)methyl]pyri-dine-4-carboxylic acid]
[1]
  IC50: 0.25 to 2.5 µM
[2]
  IC50: > 2.5 µM
[3]
  IC50: < 0.25 µM

## O=C(O)c1ccnc(CNC2CCCc3cccnc32)c1 (stereo not shown) [Compound 94, 2-{[(5,6,7,8-tetrahydroquinolin-8-yl)amino]methyl} pyridine-4-carboxylic acid]
[1]
  IC50: > 2.5 µM
[2]
  IC50: > 2.5 µM
[3]
  IC50: > 2.5 µM

## CCN1CCC[C@@H](CNCc2cc(C(=O)O)ccn2)C1=O [Compound 104, 2-[({[(3S)-1-ethyl-2-oxopiperidin-3-yl]methyl}amino)methyl]pyridine-4-carboxylic acid]
[1]
  IC50: 0.25 to 2.5 µM
[2]
  IC50: > 2.5 µM
[3]
  IC50: < 0.25 µM
[4]
  IC50: 0.25 to 2.5 µM
